Laboratory results reported in article PMC8419391 (Journal of Pharmaceutical Investigation, 2021).
In brackets after ≈: the same amount, converted by molar mass. Read-outs that look alike come from different tables or passages of the source.

What was measured:
[1] = biological target: papain-like proteinase (PLpro) (Severe acute respiratory syndrome coronavirus 2, UniProt P0DTD1); test: Papain-like proteinase; assay type: biochemical, SARS-CoV2; conditions: read-out: PLpro (Inhibition %)
[2] = biological target: SARS-CoV2 RBD / ACE2 protein complex (Severe acute respiratory syndrome coronavirus 2, UniProt P0DTC2); test: Spike protein RBD-ACE2 complex formation ELISA; assay type: binding
ACE2 protein = ACE2 protein (Homo sapiens, UniProt Q9BYF1); test: ACE2 binding
Sequence of ACE2 protein (Q9BYF1 18-805): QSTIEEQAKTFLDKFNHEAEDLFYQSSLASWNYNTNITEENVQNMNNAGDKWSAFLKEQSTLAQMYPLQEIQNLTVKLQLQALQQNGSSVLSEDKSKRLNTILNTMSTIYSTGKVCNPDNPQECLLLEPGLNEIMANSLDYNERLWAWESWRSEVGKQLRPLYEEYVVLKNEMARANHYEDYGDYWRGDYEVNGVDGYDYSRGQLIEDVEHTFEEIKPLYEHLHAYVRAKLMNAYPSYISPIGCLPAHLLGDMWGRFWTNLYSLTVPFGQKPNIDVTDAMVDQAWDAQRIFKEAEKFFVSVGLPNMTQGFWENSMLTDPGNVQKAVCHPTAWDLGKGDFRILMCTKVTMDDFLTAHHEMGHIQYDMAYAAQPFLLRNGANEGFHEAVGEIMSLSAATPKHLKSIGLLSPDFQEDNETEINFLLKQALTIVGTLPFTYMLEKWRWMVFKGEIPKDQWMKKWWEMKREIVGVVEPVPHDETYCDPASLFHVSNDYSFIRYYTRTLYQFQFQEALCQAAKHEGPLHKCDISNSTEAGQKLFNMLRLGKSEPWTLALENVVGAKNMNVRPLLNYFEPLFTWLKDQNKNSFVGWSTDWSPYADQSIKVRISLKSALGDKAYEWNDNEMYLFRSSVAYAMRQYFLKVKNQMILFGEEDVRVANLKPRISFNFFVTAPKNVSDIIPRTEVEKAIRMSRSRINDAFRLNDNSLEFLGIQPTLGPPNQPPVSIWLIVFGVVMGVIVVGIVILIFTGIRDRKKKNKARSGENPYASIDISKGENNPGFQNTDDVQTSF

SARS-CoV2 = test: microbe, parasite or virus in culture; assay type: cell-based; conditions: for EC50: Severe acute respiratory syndrome coronavirus 2, Vero C1008
SARS-CoV2 ORF gene = assay type: cell-based
BetaCoV E-gene = assay type: cell-based, SARS-CoV2
BetaCoV RdRp gene = assay type: cell-based, SARS-CoV2
human red blood cells = test: Red blood cells toxicity; assay type: cell-based; conditions: Erythrocyte, 1 h, read-out: RBC IC50 (µg/ml)
[3] = test system: Peripheral blood mononuclear cells (PBMC); test: Peripheral blood mononuclear cells toxicity; assay type: cell-based; conditions: Homo sapiens, 24 h, read-out: PBMC IC50 (µg/ml)
[4] = test system: klebsila pneumonia ATCC700603; test: Agar well diffusion assay; assay type: cell-based
[5] = test system: Staphylococcus aureus ATCC25923; test: Agar well diffusion assay; assay type: cell-based
[6] = test system: Streptococcus pyogenes EMCC1772; test: Agar well diffusion assay; assay type: cell-based
Candida albicans EMCC105 [7] = test: Agar well diffusion assay; assay type: cell-based
[8] = test system: klebsila pneumonia ATCC700603; test: Turbidity assay; assay type: cell-based
[9] = test system: Staphylococcus aureus ATCC25923; test: Turbidity assay; assay type: cell-based
[10] = test system: Streptococcus pyogenes EMCC1772; test: Turbidity assay; assay type: cell-based
Candida albicans EMCC105 [11] = test: Turbidity assay; assay type: cell-based
white blood cells (WBC) = test: Elimination of HCQ toxicity: HCQ induced WBC cytotoxicity; assay type: cell-based; conditions: HCQ 200 µg/ml
red blood cells = test: Elimination of HCQ toxicity: HCQ induced RBC hemolysis; conditions: HCQ 27.5 µg/ml
[12] = In vivo HCQ toxicity elimination: CBC profile and blood chemistry; conditions: mice, oral
Antioxidant activity = conditions: DPPH, 30 min in the dark
[13] = ref Zou et al. [2020], cited from earlier work

COc1ccc2cc3[n+](cc2c1OC)CCc1cc2c(cc1-3)OCO2 [BER, Berberine chloride hydrate]
inhibition at 62.5 µg/mL [1]: 49.8 ± 0.19%
inhibition at 126 µg/mL [1]: 65.89 ± 0.17%
inhibition at 252 µg/mL [1]: 78.93 ± 0.36%
inhibition at 504 µg/mL [1]: 84.8 ± 0.12%
inhibition at 1008 µg/mL [1]: 93.26 ± 0.73%
Spike protein- RBD- complex formation (Fold change) ([2]; 62.5 µg/ml): 03.88 ± 0.08 Fold change
Spike protein- RBD- complex formation (Fold change) ([2]; 126 µg/ml): 08.00 ± 0.10 Fold change
Spike protein- RBD- complex formation (Fold change) ([2]; 252 µg/ml): 08.50 ± 0.00 Fold change
Spike protein- RBD- complex formation (Fold change) ([2]; 504 µg/ml): 16.13 ± 0.20 Fold change
Spike protein- RBD- complex formation (Fold change) ([2]; 1008 µg/ml): 16.13 ± 0.03 Fold change
ACE2 (Binding %) (ACE2 protein; 62.5 µg/ml): 13.10 ± 0.07%
ACE2 (Binding %) (ACE2 protein; 126 µg/ml): 13.10 ± 0.90%
ACE2 (Binding %) (ACE2 protein; 252 µg/ml): 13.90 ± 1.10%
ACE2 (Binding %) (ACE2 protein; 504 µg/ml): 15.60 ± 1.60%
ACE2 (Binding %) (ACE2 protein; 1008 µg/ml): 15.60 ± 1.10%
Vero E6 reduction (%) (SARS-CoV2): 80.00 ± 1.7%
EC50 (SARS-CoV2): 16.7 ± 0.01 µg/mL
EC50/IC50% (SARS-CoV2; antiviral EC50 relative to Vero E6 IC50): 32.9 ± 0.4%
ORF gene down regulation (%) (SARS-CoV2 ORF gene; 2.5 µg/ml): 11.73 ± 0.1%
ORF gene expression (SARS-CoV2 ORF gene; 2.5 µg/ml): 0.88 ± 0.001
ORF gene down regulation (%) (SARS-CoV2 ORF gene; 5 µg/ml): 21.54 ± 0.2%
ORF gene expression (SARS-CoV2 ORF gene; 5 µg/ml): 0.79 ± 0.003
ORF gene down regulation (%) (SARS-CoV2 ORF gene; 10 µg/ml): 60.22 ± 0.8%
ORF gene expression (SARS-CoV2 ORF gene; 10 µg/ml): 0.39 ± 0.002
ORF gene down regulation (%) (SARS-CoV2 ORF gene; 20 µg/ml): 86.69 ± 0.1%
ORF gene expression (SARS-CoV2 ORF gene; 20 µg/ml): 0.13 ± 0.008
E-gene down regulation (%) (BetaCoV E-gene; 2.5 µg/ml): 89.77 ± 3.5%
E-gene expression (BetaCoV E-gene; 2.5 µg/ml): 0.102 ± 0.0003
E-gene down regulation (%) (BetaCoV E-gene; 5 µg/ml): 99.30 ± 1.8%
E-gene expression (BetaCoV E-gene; 5 µg/ml): 0.007 ± 0.0005
E-gene down regulation (%) (BetaCoV E-gene; 10 µg/ml): 99.70 ± 4.5%
E-gene expression (BetaCoV E-gene; 10 µg/ml): 0.003 ± 0.0001
E-gene down regulation (%) (BetaCoV E-gene; 20 µg/ml): 99.98 ± 3.9%
E-gene expression (BetaCoV E-gene; 20 µg/ml): 0.0002 ± 0.00001
RdRp down regulation (%) (BetaCoV RdRp gene; 2.5 µg/ml): 76.67 ± 2.9%
RdRp expression (BetaCoV RdRp gene; 2.5 µg/ml): 0.233 ± 0.001
RdRp down regulation (%) (BetaCoV RdRp gene; 5 µg/ml): 79.26 ± 3.5%
RdRp expression (BetaCoV RdRp gene; 5 µg/ml): 0.207 ± 0.002
RdRp down regulation (%) (BetaCoV RdRp gene; 10 µg/ml): 94.95 ± 6.9%
RdRp expression (BetaCoV RdRp gene; 10 µg/ml): 0.050 ± 0.0003
RdRp down regulation (%) (BetaCoV RdRp gene; 20 µg/ml): 99.89 ± 3.8%
RdRp expression (BetaCoV RdRp gene; 20 µg/ml): 0.001 ± 0.00009
IC50 (human red blood cells): 1349 ± 10.3 µg/mL
IC50 [3]: 22.2 ± 0.9 µg/mL
MIC [4]: 1850 µg/mL
MIC [5]: 926 µg/mL
MIC [6]: 463 µg/mL
MIC (Candida albicans EMCC105 [7]): 1850 µg/mL
MIC [8]: 463 µg/mL
MIC [9]: 463 µg/mL
MIC [10]: 463 µg/mL
MIC (Candida albicans EMCC105 [11]): 463 µg/mL
prevention of HCQ cytotoxic effect towards WBC (white blood cells (WBC)): ~6.7 folds
decrease of the hemolytic activity induced by HCQ (red blood cells): 42.85%
prevention of HCQ adverse effect on co-administration with HCQ ([12]; blood chemistry): moderately prevented
effect on normal CBC parameters ([12]; p < 0.05): did not affect normal CBC parameters

CCN(CCO)CCCC(C)Nc1ccnc2cc(Cl)ccc12 (stereo not drawn) [HCQ, hydroxychloroquine]
inhibition at 12.5 µg/mL [1]: 8.1 ± 0.74%
inhibition at 25 µg/mL [1]: 11.2 ± 0.39%
inhibition at 50 µg/mL [1]: 22.5 ± 0.15%
inhibition at 100 µg/mL [1]: 30 ± 0.23%
inhibition at 200 µg/mL [1]: 37 ± 0.42%
ACE2 (Binding %) (ACE2 protein; 12.5 µg/ml): 09.02 ± 0.50%
ACE2 (Binding %) (ACE2 protein; 200 µg/ml): 15.60 ± 1.40%
EC50/IC50% (SARS-CoV2): 27.5 ± 0.9%
Vero E6 reduction (%) (SARS-CoV2): 76.00 ± 1.8%
EC50 (SARS-CoV2): 0.39 ± 0.009 µg/mL (≈ 1.16 µM)
IC50 (human red blood cells): 52 ± 0.9 µg/mL (≈ 155 µM)
IC50 [3]: 3.2 ± 0.3 µg/mL (≈ 9.53 µM)
Antioxidants IC50 (Antioxidant activity): 362.7 ± 6.7 µg/mL
oral dose reaching the blood ([13]; oral): about 50%
accumulation in brain and spinal cord tissue, times higher than plasma level [13]: 30 times
accumulation in the liver and lung, times higher than plasma concentration [13]: 700 times
